Reference: patent US20150004224A1
Several values for one entry are separate records, joined by “and”; a condition that tells them apart may be missing. Identical values can stand only once.

System: Hep G2 hepatocarcinoma cells
Assay: Gene expression profiling of Hep G2 cells incubated with EPA, DHA, DPA (Illumina HT-12 bead arrays, Ingenuity iReport)
[1] = EPA 100 μM, DHA 40 μM, DPA 11 μM
[2] = top genes uniquely regulated by DPA (11 μM), 48 hours

SMILES: CC/C=C\C/C=C\C/C=C\C/C=C\C/C=C\C/C=C\CCC(=O)O [DHA, docosahexaenoic acid (C22:6 n-3)]
- FOXO3 regulation (top genes uniquely regulated by DHA) (DHA 40 μM): ←
- LSMD1 regulation (top genes uniquely regulated by DHA) (DHA 40 μM): ↑
- MAP2K2 regulation (top genes uniquely regulated by DHA) (DHA 40 μM): ↓
- MRPS34 regulation (top genes uniquely regulated by DHA) (DHA 40 μM): ↑
- MT1X regulation (top genes uniquely regulated by DHA) (DHA 40 μM): ↑
- NFKB1 regulation (top genes uniquely regulated by DHA) (DHA 40 μM): ←
- SNORA62 regulation (top genes uniquely regulated by DHA) (DHA 40 μM): ↑
- TNFSF11 regulation (top genes uniquely regulated by DHA) (DHA 40 μM): ←
- ZNF652 regulation (top genes uniquely regulated by DHA) (DHA 40 μM): ↓
- AHSA2 regulation (top genes commonly regulated) [1]: ↑
- ALPP down-regulation: symbol for regulation in common [1]: ¶(DPA)
- ALPP regulation (top genes commonly regulated) [1]: ↓
- CATSPER2 regulation (top genes commonly regulated) [1]: ↓
- CCBE1 down-regulation: symbol for regulation in common [1]: ¶(DPA)
- CCBE regulation (top genes commonly regulated) [1]: ↓
- CCL20 regulation (top genes commonly regulated) [1]: ↓
- CDKN2AIPNL regulation (top genes commonly regulated) [1]: ↓
- DDX51 down-regulation: symbol for regulation in common [1]: ¶(DPA)
- DDX51 regulation (top genes commonly regulated) [1]: ↓
- HIST2H2AA3/HIST2H2AA4 up-regulation: symbol for regulation in common [1]: ¶(EPA)
- IL8 regulation (top genes commonly regulated) [1]: ↓
- LOX up-regulation: symbol for regulation in common [1]: ¶(EPA)
- MST1 (includes EG: 15235) regulation (top genes commonly regulated) [1]: ↑
- MST1 (includes EG: 15235) up-regulation: symbol for regulation in common [1]: ¶(DPA)

SMILES: CC/C=C\C/C=C\C/C=C\C/C=C\C/C=C\CCCCCC(=O)O [DPA, docosapentaenoic acid (C22:5 n-3)]
- number of genes involved in lipid metabolism responsive (1 μM DPA): 2 genes
- fewer genes affected at the lower than at the higher DPA concentration (1 μM vs 11 μM DPA): 10 fold
- increase in number of cardiovascular physiology genes affected (11 μM DPA vs 1 μM DPA): five-fold
- number of lipid metabolism genes uniquely responding with statistically significant change in expression (11 μM DPA, not 1 μM): 22 genes
- number of genes uniquely responsive to the higher, but not the lower, DPA level (11 μM vs 1 μM DPA): 310 genes and 300 genes
- Cardiovascular: Total gene responses Low [DPA] (DPA 1 μM): 10
- Inflammatory: Total gene responses Low [DPA] (DPA 1 μM): 18
- Lipid metabolism: Total gene responses Low [DPA] (DPA 1 μM): 2
- Cardiovascular: Gene responses in common (DPA 1 μM and 11 μM): 6
- Inflammatory: Gene responses in common (DPA 1 μM and 11 μM): 4
- Lipid metabolism: Gene responses in common (DPA 1 μM and 11 μM): 0
- APOA2 expression Fold Change (DPA 11 μM): −1.229
- CD83 expression Fold Change (DPA 11 μM): −1.629
- Cardiovascular: Total gene responses High [DPA] (DPA 11 μM): 51
- DGAT1 expression Fold Change (DPA 11 μM): 1.602
- DNAJB1 expression Fold Change (DPA 11 μM): −1.489
- FGFR3 expression Fold Change (DPA 11 μM): 1.336
- GNAI3 expression Fold Change (DPA 11 μM): 1.455
- IL8 expression Fold Change (DPA 11 μM): −2.535
- IL18 (includes EG: 16173) expression Fold Change (DPA 11 μM): −1.347
- IL32 expression Fold Change (DPA 11 μM): −1.629
- IP6K1 expression Fold Change (DPA 11 μM): −1.242
- IP6K2 expression Fold Change (DPA 11 μM): 1.319
- Inflammatory: Total gene responses High [DPA] (DPA 11 μM): 22
- KIT expression Fold Change (DPA 11 μM): 1.239
- Lipid metabolism: Total gene responses High [DPA] (DPA 11 μM): 22
- NFKB1 expression Fold Change (DPA 11 μM): −1.386
- PDPN (includes EG: 10630) expression Fold Change (DPA 11 μM): −1.307
- PGF expression Fold Change (DPA 11 μM): −1.284
- PIP4K2B expression Fold Change (DPA 11 μM): −1.578
- PLA2G16 expression Fold Change (DPA 11 μM): −1.337
- PLIN5 expression Fold Change (DPA 11 μM): −1.371
- PTGR2 expression Fold Change (DPA 11 μM): −1.416
- PTX3 expression Fold Change (DPA 11 μM): −1.536
- RGS2 (includes EG: 19735) expression Fold Change (DPA 11 μM): 1.289
- STIP1 expression Fold Change (DPA 11 μM): −1.469
- ACADSB (short/branched chain acyl-CoA dehydrogenase) expression (DPA at 11 μM): upregulates
- HMGCR expression (DPA at 11 μM): downregulated
- SQLE expression (DPA at 11 μM): downregulated
- AHSA2 regulation (top genes commonly regulated) [1]: ↑
- AHSA2 up-regulation: symbol for regulation in common [1]: →♦
- ALPP down-regulation: symbol for regulation in common [1]: ¶(DHA)
- ALPP regulation (top genes commonly regulated) [1]: ↓
- CATSPER2 down-regulation: symbol for regulation in common [1]: →♦
- CATSPER2 regulation (top genes commonly regulated) [1]: ↓
- CCBE1 down-regulation: symbol for regulation in common [1]: ¶(DHA)
- CCBE regulation (top genes commonly regulated) [1]: ↓
- CCL20 regulation (top genes commonly regulated) [1]: ↓
- CDKN2AIPNL regulation (top genes commonly regulated) [1]: ↓
- DDX51 down-regulation: symbol for regulation in common [1]: ¶(DHA)
- DDX51 regulation (top genes commonly regulated) [1]: ↓
- IL8 regulation (top genes commonly regulated) [1]: ↓
- MST1 (includes EG: 15235) regulation (top genes commonly regulated) [1]: ↑
- MST1 (includes EG: 15235) up-regulation: symbol for regulation in common [1]: →¶(DHA)
- RELB down-regulation: symbol for regulation in common [1]: ¶(EPA)
- RELB regulation (top genes commonly regulated) [1]: ↓
- SRSF1 regulation (top genes commonly regulated) [1]: ↑
- SRSF1 up-regulation: symbol for regulation in common [1]: →¶(EPA)
- increase in number of genes involved in inflammatory pathways (printed: observed at 1 μM): only a minor increase
- ALDOC gene regulation [2]: ↑
- AMT gene regulation [2]: ↑
- HNRNPA2B1 gene regulation [2]: ↑
- MGC16121 gene regulation [2]: ↑
- PRKCD gene regulation [2]: ←
- QRFPR gene regulation [2]: ↓
- RELA (inhibited) gene regulation [2]: ←
- SRSF5 gene regulation [2]: ↑
- STK36 gene regulation [2]: ↑
- TLR7 (inhibited) gene regulation [2]: ←
- TOP3B gene regulation [2]: ↑
- ZNF14 gene regulation [2]: ↑

SMILES: CC/C=C\C/C=C\C/C=C\C/C=C\C/C=C\CCCC(=O)O [EPA, eicosapentaenoic acid (C20:5 n-3)]
- Beta-estradiol (inhibited) (top genes uniquely regulated by EPA) (EPA 100 μM): ←
- GNAI3 regulation (top genes uniquely regulated by EPA) (EPA 100 μM): ↑
- GOS2 regulation (top genes uniquely regulated by EPA) (EPA 100 μM): ↓
- HERPUD1 regulation (top genes uniquely regulated by EPA) (EPA 100 μM): ↓
- HIST2H2BE (includes others) regulation (top genes uniquely regulated by EPA) (EPA 100 μM): ↑
- IER3 regulation (top genes uniquely regulated by EPA) (EPA 100 μM): ↓
- IL2 (inhibited) (top genes uniquely regulated by EPA) (EPA 100 μM): ←
- Lipopolysaccharide (inhibited) (top genes uniquely regulated by EPA) (EPA 100 μM): ←
- MAT2A regulation (top genes uniquely regulated by EPA) (EPA 100 μM): ↑
- NFKBIA regulation (top genes uniquely regulated by EPA) (EPA 100 μM): ↓
- NFkB (complex) (inhibited) (top genes uniquely regulated by EPA) (EPA 100 μM): ←
- RGS2 (includes EG: 19735) regulation (top genes uniquely regulated by EPA) (EPA 100 μM): ↑
- AHSA2 regulation (top genes commonly regulated) [1]: ↑
- CATSPER2 regulation (top genes commonly regulated) [1]: ↓
- CCL20 regulation (top genes commonly regulated) [1]: ↓
- CDKN2AIPNL regulation (top genes commonly regulated) [1]: ↓
- HIST1H3A (includes others) up-regulation: symbol for regulation in common [1]: ¶(DHA)
- HIST2H2AA3/HIST2H2AA4 up-regulation: symbol for regulation in common [1]: ¶(DHA)
- IL8 regulation (top genes commonly regulated) [1]: ↓
- LOX up-regulation: symbol for regulation in common [1]: ¶(DHA)
- RELB down-regulation: symbol for regulation in common [1]: ¶(DPA)
- RELB regulation (top genes commonly regulated) [1]: ↓
- SRSF1 regulation (top genes commonly regulated) [1]: ↑
- SRSF1 up-regulation: symbol for regulation in common [1]: ¶(DPA)
